Laboratory results: patent US7420102B2, “Dwarfism genes and dwarf plants” (Wisconsin Alumni Research Foundation, priority 2002, dated 2008)

Columns and labels:
L10 mutant plants = assay: Rescue of mutant phenotype by external application of bioactive GA3, L10 line; type: in vivo, Arabidopsis
Source text: (§1) These phenotypes are similar to loss-of-function alleles of GA biosynthetic enzymes. […] Additionally, other GA forms were also substantially lower in the L10 and 69 lines (Table 4). Both mutant phenotypes could be rescued by the external application of bioactive GA3, which is consistent with the notion that the phenotypes were a result of reduced levels of bioactive GAs.

69 mutant plants = assay: Rescue of mutant phenotype by external application of bioactive GA3, 69 line; type: in vivo, Arabidopsis
Source text: as §1

C=C1C[C@]23C[C@@]1(O)CC[C@H]2[C@@]12C=C[C@H](O)[C@@](C)(C(=O)O1)[C@H]2[C@@H]3C(=O)O [GA3]
Flowering Time LD (Number of Leaves) (L10 mutant plants; GA3-treated L10 plants): 8 Number of Leaves | Height (L10 mutant plants; GA3-treated L10 plants): 30 cm | Internode Length (L10 mutant plants; GA3-treated L10 plants): 7 mm | Number of Flowering Branches (L10 mutant plants; GA3-treated L10 plants): 65 | Rescue of mutant phenotype (L10 mutant plants; external application of GA3 to L10 mutant): rescued | Flowering Time LD (Number of Leaves) (69 mutant plants; GA3-treated 69 plants): 8 Number of Leaves | Height (69 mutant plants; GA3-treated 69 plants): 30 cm | Internode Length (69 mutant plants; GA3-treated 69 plants): 7 mm | Number of Flowering Branches (69 mutant plants; GA3-treated 69 plants): 65 | Rescue of mutant phenotype (69 mutant plants; external application of GA3 to 69 mutant): rescued
